Test results from patent US7589108B2, “1-Heterocyclylalkyl-3-sulfonylindole or -indazole derivatives as 5-hydroxytryptamine-6 ligands” (Wyeth, priority 2002, dated 2009).
Where a name gives a salt, the structure may show the parent alone. Read-outs that look alike come from different tables or passages of the source.

Tests used:
[1] = target: T1, human cloned 5-HT6 receptors (Homo sapiens, UniProt P50406); experiment: 5-HT6 binding affinity ([3H]-LSD displacement, membranes of Hela cells)
T1 construct: expressed in transfected cells; host or cells: HeLa cells
T1 sequence (P50406 whole entry): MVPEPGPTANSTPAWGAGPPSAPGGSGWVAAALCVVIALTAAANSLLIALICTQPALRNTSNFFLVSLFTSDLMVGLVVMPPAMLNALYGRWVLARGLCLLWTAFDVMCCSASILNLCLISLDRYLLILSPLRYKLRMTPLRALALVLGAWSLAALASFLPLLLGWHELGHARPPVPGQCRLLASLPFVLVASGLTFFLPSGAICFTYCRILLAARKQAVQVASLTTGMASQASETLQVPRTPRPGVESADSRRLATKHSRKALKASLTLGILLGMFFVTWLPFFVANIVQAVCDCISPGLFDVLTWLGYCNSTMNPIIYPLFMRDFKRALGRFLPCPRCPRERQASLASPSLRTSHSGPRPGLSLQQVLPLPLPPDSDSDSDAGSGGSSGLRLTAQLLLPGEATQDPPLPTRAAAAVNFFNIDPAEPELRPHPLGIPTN
Method: The affinity of test compounds for the serotonin 5-HT6 receptor is evaluated in the following manner. Cultured Hela cells expressing human cloned 5-HT6 receptors are harvested and centrifuged at low speed (1,000×g) for 10.0 min to remove the culture media. The harvested cells are suspended in half volume of fresh physiological phosphate buffered saline solution and recentrifuged at the same speed. This operation is repeated. The collected cells are then homogenized in ten volumes of 50 mM Tris.HCl (pH 7.4) and 0.5 mM EDTA. The homogenate is centrifuged at 40,000×g for 30.0 min and the precipitate is collected. The obtained pellet is resuspended in 10 volumes of Tris.HCl buffer and recentrifuged at the same speed. The final pellet is suspended in a small volume of Tris.HCl buffer and the tissue protein content is determined in aliquots of 10-25 μl volumes. Bovine Serum Albumin is used as the standard in the protein determination according to the method described in Lowry et al., J. Biol. Chem., 193:265 (1951). The volume of the suspended cell membranes is adjusted to give a tissue protein concentration of 1.0 mg/ml of suspension. The prepared membrane suspension (10 times concentrated) is aliquoted in 1.0 ml volumes and stored at −70° C. until used in subsequent binding experiments.
Binding experiments are performed in a 96 well microtiter plate format, in a total volume of 200 μl. […] The test compounds are added in 20.0 μl volume.
The reaction is allowed to proceed in the dark for 120 min at room temperature, at which time, the bound ligand-receptor complex is filtered off on a 96 well unifilter with a Packard Filtermate® 196 Harvester. The bound complex caught on the filter disk is allowed to air dry and the radioactivity is measured in a Packard TopCount® equipped with six photomultiplier detectors, after the addition of 40.0 μl Microscint®-20 scintillant to each shallow well. The unifilter plate is heat-sealed and counted in a PackardTopCount® with a tritium efficiency of 31.0%.
Binding in the presence of varying concentrations of test compound is expressed as a percentage of specific binding in the absence of test compound. The results are plotted as log % bound versus log concentration of test compound. […] A linear regression line of data points is plotted, from which the IC50 value is determined and the Ki value is determined based upon the following equation: Ki=IC50/(1+L/KD) where L is the concentration of the radioactive ligand used and KD is the dissociation constant of the ligand for the receptor, both expressed in nM.

[2] = [3H]-LSD 3.0 nM, Hela cell membranes expressing human cloned 5-HT6 receptors, 120 min at room temperature, read-out: 5-HT6 Binding Ki

Row | Structure (SMILES) | melting point | Ki [1, 2] [nM] | Ki [1] [nM]
1 | COc1ccc2c(c1)c(S(=O)(=O)c1cccc(F)c1)cn2C1CCCN(C)C1 (stereo not drawn) [Example 19] | 262 to 265 °C | 68 | –
2 | O=S(=O)(c1cccc(Cl)c1)c1cn(C2CCCNC2)c2ccccc12 (stereo not drawn) [Example 17] | > 150 °C (dec.) | 5 | –
3 | O=S(=O)(c1cccc2ccccc12)c1cn(C2CCCNC2)c2ccccc12 (stereo not drawn) [Example 14] | > 180 °C (dec.) | 21 | –
4 | O=S(=O)(c1ccccc1)c1cn(C2CCNCC2)c2ccccc12 [Example 13] | 294 to 297 °C | 91 | –
5 | O=S(=O)(c1cn(C2CCCNC2)c2ccccc12)c1cccc2cccnc12 (stereo not drawn) [Example 15] | > 195 °C (dec.) | 6 | –
6 | O=S(=O)(c1ccccc1)c1cn(CC2CCNCC2)c2ccccc12 [Example 4, 3-(Phenylsulfonyl)-1-(Piperidin-4-ylmethyl)-1H-indole Hydrochloride] | – | 27 | –
7 | O=S(=O)(c1ccccc1)c1cn(C2CCN(Cc3ccccc3)CC2)c2ccccc12 [Example 12] | 288 to 291 °C | – | 49

Second part, led by results:

Row | melting point | Ki [1, 2] [nM] | Structure (SMILES) | Ki [1] [nM]
8 | 242 to 245 °C | 62 | CN1CCCC(n2cc(S(=O)(=O)c3cccc(F)c3)c3cc(Cl)ccc32)C1 (stereo not drawn) [Example 23] | –
9 | – | 4 | O=S(=O)(c1cccc(F)c1)c1cn(C2CCCNC2)c2ccc(F)cc12 (stereo not drawn) [Example 20] | –
10 | – | 13 | O=S(=O)(c1ccccc1)c1cn(C2CCCNC2)c2ccccc12 (stereo not drawn) [Example 9, 3-(Phenylsulfonyl)-1-(piperidin-3-yl)-1H-indole Hydrochloride] | –
11 | – | 122 | O=S(=O)(c1ccccc1)c1cn(C2CCCN(Cc3ccccc3)C2)c2ccccc12 (stereo not drawn) [Example 8, 1-(1-Benzylpiperidin-3-yl)-3-(phenylsulfonyl)-1H-indole] | –
12 | – | 29 | O=S(=O)(c1cccc(F)c1)c1cn(C2CCCNC2)c2ccc(Cl)cc12 (stereo not drawn) [Example 22] | –
13 | 267 to 270 °C | 11 | COc1ccc2c(c1)c(S(=O)(=O)c1cccc(F)c1)cn2C1CCCNC1 (stereo not drawn) [Example 18] | –
